Each compound was assayed on T1, 1N4R p-tau (assay: p-tau aggregation modulator screen of 1280-compound library (ThS fluorescence net change over 16 h)). Details: not given.
T1 construct: made in house; host or cells: E. coli (PIMAX system)
Format: biochemical
Design: key to PTAI>3SD: *: PTAI>3SD
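Wherever ThS net change is given: 30 µM compound with 6 µM p-tau over 16 h.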

First: Cc1ccc(Cl)c(Nc2ccccc2C(=O)[O-])c1Cl.O.[Na+]
Second: Nc1ccc(C(=O)O)c(O)c1 [4-aminosalicylic acid]
The ThS net change of the first is higher: 436 for the first, 428 for the second.

First: CN1CCc2cccc3c2[C@H]1Cc1ccc(O)c(O)c1-3.CN1CCc2cccc3c2[C@H]1Cc1ccc(O)c(O)c1-3.Cl.Cl.O
Second: C[C@]12CCC3[C@@H](CC[C@@H]4C[C@H](O)CC[C@]34C)[C@@H]1CCC2=O (stereo partly drawn) [3-alpha-Hydroxy-5-beta-androstan-17-one]
The ThS net change of the first is lower: 233 for the first, 426 for the second.

CC(=O)NC1CCSC1=O (racemic) [N-Acetyl-DL-homocysteine Thiolactone] showed a ThS net change of 421.

Same assay, conditions: 1280-compound library screen; ThS fluorescence net change over 16 h

Going from Cl.Cl.Cl.Cl.Cl.NCCNCCNCCNCCN to NCC(CC(=O)O)c1ccc(Cl)cc1 (racemic) [Baclofen (R,S)], the ThS net change rises from 394 to 407.

First: CC=CC(=O)N(CC)c1ccccc1C (mixture of isomers) [Crotamiton]
Second: CC(C)NCC(O)COc1ccc(CC(N)=O)cc1 (stereo in doubt) [(R)-(+)-Atenolol]
The ThS net change of the first is lower: 386 for the first, 395 for the second.

Going from CN(N=O)C(=O)N[C@H]1C(O)O[C@H](CO)[C@@H](O)[C@@H]1O (mixture of isomers) [Streptozotocin] to CC(C)(S)C(N)C(=O)O (racemic) [D,L-Penicillamine], the ThS net change rises from 384 to 385.

Compared with COCCc1ccc(OCC(O)CNC(C)C)cc1.COCCc1ccc(OCC(O)CNC(C)C)cc1.O=C(O)C(O)C(O)C(=O)O (racemic) [Metoprolol-(+,-) (+)-tartrate salt], Clc1cnccn1 [2-Chloropyrazine] is higher in ThS net change: 390 for the first, 410 for the second.

Compound NC1CONC1=O (stereo in doubt) [(S)-(-)-Cycloserine] has a ThS net change of 391.

Same assay, conditions: 1280-compound library screen; […]

Compound CNCC(O)c1ccc(O)cc1 (racemic) [(+,-)-Synephrine] has a ThS net change of 410.

Same assay, conditions: flag: p-tau aggregation inhibitor, ThS net change more than 3 SD from mean

For O=C1c2cccc(O)c2C(=O)c2c(O)cccc21 [1,8-Dihydroxyanthraquinone], the “PTAI>3SD” value was “*”.

Same assay, conditions: library screen, ThS fluorescence net change over 16 h with p-tau

Compared with COC(=O)C1=C(C)NC(C)=C(C(=O)O[C@@H]2CCCN(Cc3ccccc3)C2)[C@@H]1c1cccc([N+](=O)[O-])c1.Cl (racemic) [Benidipine hydrochloride], O=C1c2cccc(O)c2C(=O)c2c(O)cccc21 [1,8-Dihydroxyanthraquinone] is lower in ThS net change: 259 for the first, 25 for the second.

Same assay, conditions: p-tau aggregation modulator screen of 1280-compound library; ThS fluorescence net change

First: CC(C)NCC(O)c1cc(O)cc(O)c1.CC(C)NCC(O)c1cc(O)cc(O)c1.O=S(=O)(O)O (centres unmarked)
Second: CC(C)NCC(O)COc1ccc(CC(N)=O)cc1 (stereo in doubt) [(S)-(-)-Atenolol]
The ThS net change of the first is lower: 362 for the first, 363 for the second.

First: Cl.Cl.c1ccc2c(c1)CCCc1cc(NCCN3CCOCC3)nnc1-2
Second: O=C(O)Cc1cc(I)c(Oc2ccc(O)c(I)c2)c(I)c1
The ThS net change of the first is lower: 345 for the first, 369 for the second.

CN(Cc1cnc2nc(N)nc(N)c2n1)c1ccc(C(=O)NC(CCC(=O)O)C(=O)O)cc1 (racemic) [Amethopterin (R,S)] was tested, and the ThS net change was 373.

Same assay, conditions: p-tau aggregation modulator screen of 1280-compound library; […]

Compared with Br.COc1ccc2c(c1)[C@]13CCCC[C@@H]1[C@H](C2)N(C)CC3.O, COc1cc2c(cc1OC)C(C)NCC2.Cl (centres unmarked) is lower in ThS net change: 372 for the first, 359 for the second.

Same assay, conditions: p-tau aggregation modulator screen of the compound library, ThS fluorescence net change

Going from CC=CC1=C(C(=O)O)N2C(=O)[C@@H](NC(=O)[C@H](N)c3ccc(O)cc3)[C@H]2SC1 (mixture of isomers) [Cefprozil] to Cl.NCC(O)c1ccc(O)cc1 (racemic) [(+,-)-Octopamine hydrochloride], the ThS net change falls from 440 to 413.

Going from CCCCC(C)(O)C/C=C/[C@H]1[C@H](O)CC(=O)[C@@H]1CCCCCCC(=O)OC (mixture of isomers) [Misoprostol] to C#C[C@]1(OC(C)=O)CC[C@H]2[C@@H]3CCC4=CC(=NO)CC[C@@H]4[C@H]3CC[C@@]21CC (mixture of isomers) [Norgestimate], the ThS net change falls from 495 to 486.

First: OCC(O)CN1CCN(c2ccccc2)CC1 (racemic) [Dropropizine (R,S)]
Second: Nc1c2c(nc3ccccc13)CCCC2O.O=C(O)/C=C\C(=O)O (racemic) [Hydroxytacrine maleate (R,S)]
The ThS net change of the first is lower: 418 for the first, 423 for the second.

Work on Nc1ccccc1S(N)(=O)=O [2-Aminobenzenesulfonamide] yielded a ThS net change of 430.

Reference: publication PMC7539012, “Hyperphosphorylated tau aggregation and cytotoxicity modulators screen identified prescription drugs linked to Alzheimer's disease and cognitive functions” (Scientific Reports, 2020)
